Experiments:
[1] = Stability in rat plasma assessed as half life at 1 uM measured upto 120 min by LC-MS/MS analysis; type: ADME, cell-free
[2] = Apparent permeability across apical to basolateral side in human Caco-2 cells at 10 uM incubated for 2 hrs by LC-MS/MS analysis; type: ADME, cell-based
HGC-27 = test: Antiproliferative activity against human HGC-27 cells assessed as reduction in cell viability incubated in dark for 96 hrs by MTT assay; type: functional, cell-based; settings: HGC-27, 96 h
[3] = Plasma protein binding in rat at 1 uM by LC-MS/MS analysis; type: ADME, cell-free; settings: read-out: PPB (converted)
MG-63 = test: Antiproliferative activity against human MG-63 cells assessed as reduction in cell viability incubated in dark for 96 hrs by MTT assay; type: functional, cell-based; settings: MG-63, 96 h
[4] = Stability in dog plasma assessed as half life at 1 uM measured upto 120 min by LC-MS/MS analysis; type: ADME, cell-free, Canis lupus familiaris
[5] = Apparent permeability across basolateral to apical side in human Caco-2 cells at 10 uM incubated for 2 hrs by LC-MS/MS analysis; type: ADME, cell-based
BGC-823 = test: Antiproliferative activity against human BGC-823 cells assessed as reduction in cell viability incubated in dark for 96 hrs by MTT assay; type: functional, cell-based; settings: BGC-823, 96 h
MGC-803 = test: Antiproliferative activity against human MGC-803 cells assessed as reduction in cell viability incubated in dark for 96 hrs by MTT assay; type: functional, cell-based; settings: MGC-803, 96 h
[6] = Retention time of the compound by HPLC analysis; type: physicochemical
[7] = Stability in dog liver microsomes assessed as half life at 1 uM in presence of NADPH measured upto 120 min by LC-MS/MS analysis; type: ADME, Canis lupus familiaris, Microsome
AGS = test: Antiproliferative activity against human AGS cells assessed as reduction in cell viability incubated in dark for 96 hrs by MTT assay; type: functional, cell-based
[8] = Plasma protein binding in dog at 1 uM by LC-MS/MS analysis; type: ADME, cell-free, Canis lupus familiaris; settings: read-out: PPB (converted)
HCT-116 = test: Antiproliferative activity against human HCT-116 cells assessed as reduction in cell viability incubated in dark for 96 hrs by MTT assay; type: functional, cell-based; settings: HCT-116, 96 h
[9] = Stability in rat liver microsomes assessed as half life at 1 uM in presence of NADPH by LC-MS/MS analysis; type: ADME, Microsome

Question: For `COc1ncc(-c2cc(OC3CCOCC3)c3ncnc(C)c3c2)cc1NS(=O)(=O)c1ccc(F)cc1F`, which half-life at 1 µM [1] is on record?
Answer: > 2 h

Question: What about the Papp A→B at 2 h, 10 µM [2] of the same molecule?
Answer: 21.2 ×10⁻⁶ cm/s

Question: And the IC50 (HGC-27)?
Answer: 0.76 nM

Question: What about the fraction unbound at 1 µM [3] of the same molecule?
Answer: 0.017

Question: What about the IC50 (MG-63) of the same molecule?
Answer: 5.7 nM

Question: And the half-life at 1 µM [4]?
Answer: > 2 h

Question: And the Papp B→A at 2 h, 10 µM [5]?
Answer: 26.5 ×10⁻⁶ cm/s

Question: And the IC50 (BGC-823)?
Answer: 18.6 nM

Question: And the IC50 (MGC-803)?
Answer: 14.8 nM

Question: And the Retention_time [6]?
Answer: 5.2 min

Question: And the half-life at 1 µM [7]?
Answer: > 2 h

Question: And the IC50 (AGS)?
Answer: 6.3 nM

Question: And the fraction unbound at 1 µM [8]?
Answer: 0.017

Question: What about the IC50 (HCT-116) of the same molecule?
Answer: 23.4 nM

Question: And the half-life at 1 µM [9]?
Answer: 1.73 h
